Test results as given in patent EP1902732A1, “PROPHYLACTIC/THERAPEUTIC AGENT FOR HER2-EXPRESSING CANCER” (Takeda Pharmaceutical Company Limited, priority 2005, dated 2006).

How the values were obtained:
HER2 [1] = experiment: Western blotting of phosphorylated HER2 in BT-474 cells; assay type: cell-based, human
Protocol: (§1) Human HER2-expressing human breast cancer cell line BT-474 (purchased from American Tissue Culture Collection (ATCC)) was seeded into a 24-multiwell plate (BT-474: 1.2 x 10^5 cells/well), and cultured overnight in a carbon dioxide gas incubator (5% CO2, 37°C). A 4-fold dilution series of a mitochondrial respiratory chain complex inhibiting compound (complex I: rotenone, complex III: antimycin, complex V: oligomycin: Wako Pure Chemical Industries) was added starting from a final concentration of 1 µmol/L in 5 steps while continuing culture. After 2 hours, the broth was removed, and the cells were lysed with an SDS sample buffer (200 µL). Western blotting analysis was performed as follows. Specifically, this cell lysate (8 µL) was separated by an SDS-PAGE method (gel concentration: 7.5-15%) (Analytical Biochemistry, No. 166, pp. 368-379, 1987), and transferred to a nitrocellulose membrane (BioRad). Then, an antibody specific to phosphorylated HER2 (Cell signaling technology, Code# 2244), an anti-phosphorylated Akt antibody specific to downstream antiapoptotic signal transducing molecule Akt (Cell signaling technology, Code# 9271) and an anti-phosphorylated MAPK antibody specific to downstream proliferation signal transducing molecule MAPK (Cell signaling technology, Code# 9101) were used to detect the antibody with an ECL system (Amersham) to quantify the amount of phosphorylated protein by an image analysis.
(§2) Human HER2-expressing human cancer cell line BT-474 (purchased from ATCC) was seeded into a 24-multiwell plate (1.2 x 10^5 cells/well) and cultured overnight in a carbon dioxide gas incubator (20% O2, 5% CO2, 37°C). A 3-fold dilution series of metformin that activates AMPK (The Journal of Biological Chemistry, Vol. 279, No. 42, pp. 43940-43951, 2004) was added starting from a final concentration of 15 mmol/L in 5 steps while continuing culture. Two hours later, the broth was removed and the cells were lysed with an SDS sample buffer (200 µL). This cell lysate (8 µL) was separated by an SDS-PAGE method (gel concentration: 7.5-15%) (Analytical Biochemistry, No. 166, pp. 368-379, 1987). Then, western blotting analysis was performed in the same manner as in Example 1 to quantify phosphorylated HER2, phosphorylated Akt and phosphorylated MAPK.
Human HER2-expressing human breast cancer cell line BT-474 (purchased from American Tissue Culture Collection (ATCC)) was seeded into a 24-multiwell plate (BT-474: 1.2 x 10^5 cells/well), and cultured overnight in a carbon dioxide gas incubator (5% CO2, 37°C). Mitochondrial respiratory chain complex 1-inhibiting compound rotenone (Wako Pure Chemical Industries) was added in 5 steps at final concentrations of 1, 0.333, 0.111, 0.033 and 0.011 µmol/L while continuing culture. Two hours later, the broth was removed and the cells were lysed with an SDS sample buffer (200 µL). Then, this cell lysate was used to perform western blotting analysis. Specifically, this cell lysate (8 µL) was separated by an SDS-PAGE method (gel concentration: 7.5-15%) (Analytical Biochemistry, No. 166, pp. 368-379, 1987) and transferred to a nitrocellulose membrane (BioRad). Then, an antibody specific to phosphorylated HER2 (Cell signaling technology, Code# 2244), an AMPK antibody specific to AMPK (Cell signaling technology, Code# 2535) and an anti-phosphorylated AMPK antibody specific to phosphorylated AMPK (Cell signaling technology, Code# 2532) were used to detect the antibody by chemiluminescent detection with an ECL system (Amersham) to quantify an amount of phosphorylated protein with LAS-1000 plus image analysis device (FUJIFILM).
Human HER2-expressing human breast cancer cell line BT-474 (purchased from American Tissue Culture Collection (ATCC)) was seeded into a 24-multiwell plate (BT-474: 1.2 x 10^5 cells/well) and cultured overnight in a carbon dioxide gas incubator (5% CO2, 37°C). […]

Akt [2] = experiment: Western blotting of phosphorylated Akt in BT-474 cells; assay type: cell-based, human
Protocol: as §1, §2

MAPK [3] = experiment: Western blotting of phosphorylated MAPK in BT-474 cells; assay type: cell-based, human
Protocol: as §1, §2

[4] = system: BT-474 breast cancer cell; experiment: Viable cell count using Cell Counting Kit-F; assay type: cell-based, human; settings: five days of culture
Protocol: (§3) BT-474 breast cancer cell, MDA-MB-453 breast cancer cell, A549 non-small cell lung cancer cell and LNCaP prostate cancer cell were used as human HER2-expressing cells while MDA-MB-231 breast cancer cell and A498 kidney cancer cell (all purchased from ATCC) were used as HER2-nonexpressing cells. Each of the cells used had been seeded into a 96-plate at 500cells/150 µL/well and cultured overnight. Each of the compounds, i.e., antimycin (final concentrations: 1, 0.1, 0.01 and 0.001 µmol/L), 2,4-dinitrophenol (final concentrations: 0.6, 0.2, 0.06 and 0.02 mmol/L), metformin (final concentrations: 25, 5, 1 and 0.2 mmol/L) and AICAR (final concentrations: 25, 5, 1 and 0.2 mmol/L) was diluted with a medium and added for 50 µL/well at a time to the final concentrations mentioned above. Following five days of culture at 37°C in 5% CO2, the cells were counted using Cell Counting Kit-F (Dojindo Laboratories).
(§4) Viable cell count using Cell Counting Kit-F was carried out by the following method according to the attached instruction. The supernatant was removed from the 96-well plate after five days of culture. Cell Counting Kit-F diluted 1000-fold with an RPMI medium (phenol red-free, serum-free) was added for 100 µL/well at a time. After 30 minutes of reaction at room temperature, fluorescence (excitation wavelength; 480 nm, fluorescent wavelength; 530 nm) was determined with a fluorescent plate reader.
(§5) From the determination results, percentage of the fluorescence level in the wells added with the compound was determined assuming that the fluorescence level in the wells without the addition of the compound (control) is 100%, and the remaining cellular quantity was determined in % with respect to that of the control.
(§6) BT-474 breast cancer cell, MDA-MB-453 breast cancer cell and LNCaP prostate cancer cell were used as human HER2-expressing cells while MDA-MB-231 breast cancer cell and A498 kidney cancer cell (all purchased from ATCC) were used as HER2-nonexpressing cells. Each of the cells used had been seeded into a 96-well plate at 500 cells/150 µL/well and cultured overnight. Troglitazone (final concentrations: 25, 6.25 and 1.56 µmol/L) was diluted with a medium, and added for 50 µL/well at a time to the final concentrations mentioned above. Following five days of culture at 37°C in 5% CO2, the cells were counted using Cell Counting Kit-F (Dojindo Laboratories).
as §5, with “troglitazone” for “the compound”

[5] = system: LNCaP prostate cancer cell; experiment: Viable cell count using Cell Counting Kit-F; assay type: cell-based, human; settings: five days of culture
Protocol: as §3, §4, §5, §6
as §5, with “troglitazone” for “the compound”

[6] = system: MDA-MB-453 breast cancer cell; experiment: Viable cell count using Cell Counting Kit-F; assay type: cell-based, human; settings: five days of culture
Protocol: as §3, §4, §5, §6
as §5, with “troglitazone” for “the compound”

[7] = system: A549 non-small cell lung cancer cell; experiment: Viable cell count using Cell Counting Kit-F; assay type: cell-based, human; settings: HER2-expressing cancer, five days of culture
Protocol: as §3, §4, §5

DU145 = experiment: Viable cell count using Cell Counting Kit-F; assay type: cell-based; settings: HER2-nonexpressing cancer, five days of culture
A498 kidney cancer cell = experiment: Viable cell count using Cell Counting Kit-F; assay type: cell-based; settings: five days of culture
Protocol: as §3, §4, §5, §6
as §5, with “troglitazone” for “the compound”

[8] = system: MDA-MB-231 breast cancer cell; experiment: Viable cell count using Cell Counting Kit-F; assay type: cell-based; settings: five days of culture
Protocol: as §3, §4, §5, §6
as §5, with “troglitazone” for “the compound”

HER2 [9] = experiment: Western blotting of phosphorylated HER2 in SK-BR-3 cells; assay type: cell-based, human; settings: Example 4, medium glucose 0.1 mg/mL, 5 mg/mL, two hours
Protocol: (§7) HER2-expressing human cancer cell line SK-BR-3 (purchased from ATCC) was seeded into a 24-multiwell plate (4.0 x 10^5 cells/well) and cultured overnight in a carbon dioxide gas incubator (5% CO2, 37°C). Then, the medium was exchanged for a medium with a glucose content of 0.1 mg/mL and cultured for another 2 hours. A glucose antimetabolite 2-deoxyglucose was added to a final concentration of 5 mg/mL. Two hours later, the broth was removed and the cells were lysed with an SDS sample buffer (200 µL). This cell lysate (8 µL) was separated by an SDS-PAGE method (gel concentration: 7.5-15%) (Shagger et al., Analytical Biochemistry, No. 166, pp. 368-379, 1987). Then, western blotting analysis was performed in the same manner as in Example 1 to detect phosphorylated HER2, phosphorylated Akt and phosphorylated MAPK.

Akt [10] = experiment: Western blotting of phosphorylated Akt in SK-BR-3 cells; assay type: cell-based, human; settings: Example 4, medium glucose 0.1 mg/mL, 5 mg/mL, two hours
Protocol: as §7

MAPK [11] = experiment: Western blotting of phosphorylated MAPK in SK-BR-3 cells; assay type: cell-based, human; settings: Example 4, medium glucose 0.1 mg/mL, 5 mg/mL, two hours
Protocol: as §7

[12] = system: phosphorylated acetyl-CoA carboxylase (ACC); experiment: Western blotting of phosphorylated ACC in BT-474 cells; assay type: cell-based, human; settings: Example 7, two hours, antimycin 1-0.01 nmol/L, oligomycin 100-1 ng/mL, 2,4-dinitrophenol 300-3 µmol/L
Protocol: (§8) Human HER2-expressing human breast cancer cell line BT-474 (purchased from American Tissue Culture Collection (ATCC)) was seeded into a 24-multiwell plate (BT-474: 1.2 x 10^5 cells/well) and cultured overnight in a carbon dioxide gas incubator (5% CO2, 37°C). As an energy metabolism inhibitor having a mechanism that differed from that of rotenone, mitochondrial respiratory chain complex III-inhibiting compound antimycin (Wako Pure Chemical Industries) was added to final concentrations of 1, 0.3, 0.1, 0.03 and 0.01 nmol/L while continuing culture. Using another plate, mitochondrial respiratory chain complex V-inhibiting compound oligomycin (Wako Pure Chemical Industries) was added to final concentrations of 100, 30, 10, 3 and 1 ng/mL while continuing culture. In addition, 2,4-dinitrophenol was added to 300, 100, 30, 10 and 3 µmol/L while continuing culture. Two hours after the addition of the agent, the broth was removed and the cells were lysed with an SDS sample buffer (200 µL). Then, this cell lysate was used to perform western blotting analysis. Specifically, this cell lysate (8 µL) was separated by an SDS-PAGE method (gel concentration: 7.5-15%) (Analytical Biochemistry, No. 166, pp. 368-379, 1987) and transferred onto a nitrocellulose membrane (BioRad). Then, an antibody specific to phosphorylated HER2 (Cell signaling technology, Code# 2244), pACC antibody specific to phosphorylated acetyl-CoA carboxylase (ACC) (Cell signaling technology, Code# 3661) and anti-phosphorylated S6K antibody specific to phosphorylated S6 kinase (S6K) (Cell signaling technology, Code# 9209) were used to detect the antibody by chemiluminescent detection with an ECL system (Amersham) to quantify an amount of phosphorylated protein with LAS-1000 plus image analysis device (FUJIFILM).

[13] = system: phosphorylated S6 kinase (S6K); experiment: Western blotting of phosphorylated S6K in BT-474 cells; assay type: cell-based, human; settings: Example 7, two hours, antimycin 1-0.01 nmol/L, oligomycin 100-1 ng/mL, 2,4-dinitrophenol 300-3 µmol/L
Protocol: as §8

[14] = Example 5, 3-fold dilution series from 15 mmol/L in 5 steps, two hours
[15] = Example 2, 4-fold dilution series from 1 µmol/L in 5 steps, 2 hours

CN(C)C(=N)N=C(N)N [metformin]
HER2 phosphorylation (HER2 [1]; [14]): concentration-dependent suppression of HER2 phosphorylation
Akt phosphorylation (Akt [2]; [14]): suppressions of Akt and MAPK phosphorylations were also confirmed
MAPK phosphorylation (MAPK [3]; [14]): suppressions of Akt and MAPK phosphorylations were also confirmed
minimum concentrations for inhibiting cell proliferation for 50% or more ([4]; BT474, HER2-expressing cancer): 1 mmol/L
minimum concentrations for inhibiting cell proliferation for 50% or more ([5]; LNCaP, HER2-expressing cancer): 1 mmol/L
minimum concentrations for inhibiting cell proliferation for 50% or more ([6]; MB453, HER2-expressing cancer): 1 mmol/L
minimum concentrations for inhibiting cell proliferation for 50% or more [7]: 5 mmol/L
minimum concentrations for inhibiting cell proliferation for 50% or more (DU145): >25 mmol/L
minimum concentrations for inhibiting cell proliferation for 50% or more (A498 kidney cancer cell; A498, HER2-nonexpressing cancer): >25 mmol/L
minimum concentrations for inhibiting cell proliferation for 50% or more ([8]; MB231, HER2-nonexpressing cancer): >25 mmol/L

Cc1c(C)c2c(c(C)c1O)CCC(C)(COc1ccc(CC3SC(=O)NC3=O)cc1)O2 (stereo not drawn) [troglitazone]
inhibition at 25 µM ([4]; Homo sapiens, BT-474, 120 h, BT474 cell, 25 µmol/L, read-out: proliferation inhibited to (remaining cellular quantity in % with respect to that of the control)): 50%
inhibition at 25 µM ([5]; Homo sapiens, 120 h, LNCaP cell, 25 µmol/L, read-out: proliferation inhibited to (remaining cellular quantity in % with respect to that of the control)): 48%
inhibition at 25 µM ([6]; Homo sapiens, MDA-MB-453, 120 h, MB453 cell, 25 µmol/L, read-out: proliferation inhibited to (remaining cellular quantity in % with respect to that of the control)): 25%
inhibition at 25 µM (A498 kidney cancer cell; Homo sapiens, 120 h, A498 cell, HER2-nonexpressing, 25 µmol/L, read-out: proliferation inhibited to (remaining cellular quantity in % with respect to that of the control)): 105%
inhibition at 25 µM ([8]; Homo sapiens, 120 h, MDA-MB-231 cell, HER2-nonexpressing, 25 µmol/L, read-out: proliferation inhibited to (remaining cellular quantity in % with respect to that of the control)): 100%

O=CC[C@@H](O)[C@H](O)[C@H](O)CO [2-deoxyglucose]
HER2 phosphorylation (HER2 [9]): suppressed phosphorylation of each protein
Akt phosphorylation (Akt [10]): suppressed phosphorylation of each protein
MAPK phosphorylation (MAPK [11]): suppressed phosphorylation of each protein

CC[C@H]1/C=C/C=C/C[C@@H](C)[C@H](O)[C@@](C)(O)C(=O)[C@@H](C)[C@H](O)[C@@H](C)C(=O)[C@@H](C)[C@H](O)[C@@H](C)/C=C/C(=O)O[C@@H]2[C@H](C)[C@H](CC1)O[C@]1(CC[C@H](C)[C@H](C[C@@H](C)O)O1)[C@H]2C [oligomycin]
HER2 phosphorylation (HER2 [1]; [15]): suppression of HER2 phosphorylation was confirmed
HER2 phosphorylation (HER2 [1]; Example 7, two hours, antimycin 1-0.01 nmol/L, oligomycin 100-1 ng/mL, 2,4-dinitrophenol 300-3 µmol/L): decreased dose-dependently
Akt phosphorylation (Akt [2]; [15]): suppressions of Akt and MAPK phosphorylations were also confirmed
MAPK phosphorylation (MAPK [3]; [15]): suppressions of Akt and MAPK phosphorylations were also confirmed
phosphorylation of ACC [12]: increased dose-dependently
phosphorylation of S6K [13]: suppressed
